Columns and labels:
AtTT19 [1] = target: T1, AtTT19 (Arabidopsis thaliana, UniProt Q9FE46); assay: cyanidin formation by clarified E. coli lysate expressing the GST; type: biochemical; settings: 20 μM GSH, 100 mM MOPSO pH 6.2, 30 °C
T1 construct: gene GSTF12; expressed in E. coli from pET-28b-based plasmid, clarified lysate
T1 sequence (Q9FE46 1-214): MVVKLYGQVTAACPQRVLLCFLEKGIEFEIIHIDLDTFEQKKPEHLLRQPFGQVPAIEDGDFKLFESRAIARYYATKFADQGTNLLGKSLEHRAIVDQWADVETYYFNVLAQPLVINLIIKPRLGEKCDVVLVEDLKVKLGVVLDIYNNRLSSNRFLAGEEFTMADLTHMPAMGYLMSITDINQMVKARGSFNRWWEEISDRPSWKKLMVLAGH

ZmBZ2 = target: T2, ZmBZ2 (Zea mays, UniProt P50472); assay: GSH-transferase assay, A340nm, clarified E. coli lysate; type: biochemical; settings: 1 mM CDNB, 1 mM GSH, 50 mM Tris pH 7.5, 30 °C
T2 construct: gene BZ2; expressed in E. coli from pET-28b-based plasmid, clarified lysate
T2 sequence (P50472 1-236): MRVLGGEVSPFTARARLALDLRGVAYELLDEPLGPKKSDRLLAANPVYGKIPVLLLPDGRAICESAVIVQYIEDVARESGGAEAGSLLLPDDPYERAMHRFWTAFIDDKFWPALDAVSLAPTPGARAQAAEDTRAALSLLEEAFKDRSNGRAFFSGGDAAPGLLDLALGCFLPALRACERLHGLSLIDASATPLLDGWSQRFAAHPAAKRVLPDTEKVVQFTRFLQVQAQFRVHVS

VvGST2 = target: T3, VvGST2 (Vitis vinifera, UniProt A0T2X7); assay: as above; type: biochemical; settings: 1 mM CDNB, 1 mM GSH, 50 mM Tris pH 7.5, 30 °C
T3 construct: gene GST2; expressed in E. coli from pET-28b-based plasmid, clarified lysate
T3 sequence (A0T2X7 1-214): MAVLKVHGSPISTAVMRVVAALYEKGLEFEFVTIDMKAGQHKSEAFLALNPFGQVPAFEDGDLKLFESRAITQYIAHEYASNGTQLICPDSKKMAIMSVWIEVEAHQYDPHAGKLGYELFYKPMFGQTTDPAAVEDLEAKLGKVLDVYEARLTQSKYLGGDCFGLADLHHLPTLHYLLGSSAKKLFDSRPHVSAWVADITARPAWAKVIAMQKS

AtTT19 [2] = target: T1, AtTT19; assay: as above; type: biochemical; settings: 1 mM CDNB, 1 mM GSH, 50 mM Tris pH 7.5, 30 °C
AtGSTF2 = target: T4, AtGSTF2 (Arabidopsis thaliana, UniProt P46422); assay: as above; type: biochemical; settings: 1 mM CDNB, 1 mM GSH, 50 mM Tris pH 7.5, 30 °C
T4 construct: gene GSTF2; expressed in E. coli from pET-28b-based plasmid, clarified lysate
T4 sequence (P46422 1-212): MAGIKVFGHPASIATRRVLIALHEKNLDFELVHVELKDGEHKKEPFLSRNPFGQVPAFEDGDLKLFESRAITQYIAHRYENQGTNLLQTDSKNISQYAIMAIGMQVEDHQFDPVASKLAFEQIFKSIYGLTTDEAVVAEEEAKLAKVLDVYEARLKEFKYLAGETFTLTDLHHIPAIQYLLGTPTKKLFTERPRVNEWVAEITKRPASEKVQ

PhAN9 = target: T5, PhAN9 (Petunia x hybrida, UniProt O24261); assay: as above; type: biochemical; settings: 1 mM CDNB, 1 mM GSH, 50 mM Tris pH 7.5, 30 °C
T5 construct: expressed in E. coli from pET-28b-based plasmid, clarified lysate
T5 sequence (O24261 1-232): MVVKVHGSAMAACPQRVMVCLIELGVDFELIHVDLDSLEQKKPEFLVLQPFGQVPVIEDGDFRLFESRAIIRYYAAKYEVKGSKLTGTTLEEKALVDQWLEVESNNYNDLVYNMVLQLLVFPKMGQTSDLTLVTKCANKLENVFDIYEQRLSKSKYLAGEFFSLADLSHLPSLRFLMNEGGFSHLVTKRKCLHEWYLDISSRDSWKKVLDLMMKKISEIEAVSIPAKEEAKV

PtGSTF8 = target: T6, PtGSTF8 (Populus trichocarpa, UniProt B9MWW0); assay: X-ray crystal structure, […] Å; type: binding; settings: ternary complex with GSH; H-site; substrate analogue
T6 construct: gene POPTR_017G138800; full length, expressed in E. coli from pET-28b-based pANT35, GSTrap purified, apo (GSH removed with DTT)
T6 sequence (B9MWW0 1-214): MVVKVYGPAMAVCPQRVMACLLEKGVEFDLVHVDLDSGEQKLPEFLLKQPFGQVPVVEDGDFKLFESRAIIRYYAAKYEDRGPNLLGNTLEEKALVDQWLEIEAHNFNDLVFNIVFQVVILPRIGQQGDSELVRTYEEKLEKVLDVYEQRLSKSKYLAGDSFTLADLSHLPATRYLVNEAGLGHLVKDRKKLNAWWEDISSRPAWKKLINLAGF

[3] = substrate: Oc1cc(O)c2c(c1)O[C@H](c1ccc(O)c(O)c1)C(O)(O)[C@H]2O; assay: cyanidin formation at A580nm, 96-well plate, Michaelis-Menten; type: biochemical, Populus trichocarpa; settings: GSH cofactor, 100 mM MOPSO pH 6.2, 30 °C, ascorbate, Fe(II), ultrafiltered substrate, apparent

## Oc1cc(O)c2c(c1)O[C@H](c1ccc(O)c(O)c1)C(O)(O)[C@H]2O [compound 4]
AtTT19 [1]
  cyanidin formation by clarified E. coli lysate expressing the GST: arGSTs from maize (ZmBZ2), arabidopsis (AtTT19) and grapevine (VvGST4)

## O=[N+]([O-])c1ccc(Cl)c([N+](=O)[O-])c1 [compound 5, 1-chloro-2,4-dinitrobenzene]
ZmBZ2
  GSH-transferase assay, A340nm, clarified E. coli lysate: all investigated GSTs were confirmed to be solubly and functionally produced
VvGST2
  GSH-transferase assay, A340nm, clarified E. coli lysate: all investigated GSTs were confirmed to be solubly and functionally produced
AtTT19 [2]
  GSH-transferase assay, A340nm, clarified E. coli lysate: all investigated GSTs were confirmed to be solubly and functionally produced
AtGSTF2
  GSH-transferase assay, A340nm, clarified E. coli lysate: all investigated GSTs were confirmed to be solubly and functionally produced
PhAN9
  GSH-transferase assay, A340nm, clarified E. coli lysate: all investigated GSTs were confirmed to be solubly and functionally produced

## Oc1cc(O)c2c(c1)O[C@@H](c1ccc(O)c(O)c1)[C@H](O)C2 [compound 12, (−)-catechin]
PtGSTF8
  X-ray crystal structure, 1.09 Å: crystal structure of PtGSTF8 as a ternary complex with GSH and the substrate analogue (−)-catechin

B1: PtGSTF8 (Populus trichocarpa) (protein)
chain: MVVKVYGPAMAVCPQRVMACLLEKGVEFDLVHVDLDSGEQKLPEFLLKQPFGQVPVVEDGDFKLFESRAIIRYYAAKYEDRGPNLLGNTLEEKALVDQWLEIEAHNFNDLVFNIVFQVVILPRIGQQGDSELVRTYEEKLEKVLDVYEQRLSKSKYLAGDSFTLADLSHLPATRYLVNEAGLGHLVKDRKKLNAWWEDISSRPAWKKLINLAGF
notes: full length, expressed in E. coli from pET-28b-based pANT35, GSTrap purified, apo (GSH removed with DTT)
[3]
  Km: 147 ± 8 µM
  kcat: 7.1 min⁻¹

From PMC10593608, “The catalytic role of glutathione transferases in heterologous anthocyanin biosynthesis” (Nature Catalysis, 2023)
